From ChEMBL document CHEMBL1201862, “PubChem BioAssay data set” (2004)
Blank lines part the entries; values can stand above or below the compound they belong to. The source made the active and inactive calls.

Columns and labels:
[1] = biological target: Endoplasmic reticulum aminopeptidase 1 (Homo sapiens, UniProt Q9NZ08); experiment: inhibition of human ERAP1 enzyme activity – biochemical, cherry-pick, set 2, plate reader, dose response (AID 743314)
[2] = biological target: T1, Fatty acid synthase (Homo sapiens, UniProt P49327); experiment: inhibition of human FAS-TE enzyme activity – biochemical, kinetic fluorescence intensity, dose response (AID 624326); assay type: functional;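 also: rate of fluorescence rise from hydrolysis of a fluorogenic O-methyl fluorescein ester substrate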
T1 sequence (P49327 whole entry): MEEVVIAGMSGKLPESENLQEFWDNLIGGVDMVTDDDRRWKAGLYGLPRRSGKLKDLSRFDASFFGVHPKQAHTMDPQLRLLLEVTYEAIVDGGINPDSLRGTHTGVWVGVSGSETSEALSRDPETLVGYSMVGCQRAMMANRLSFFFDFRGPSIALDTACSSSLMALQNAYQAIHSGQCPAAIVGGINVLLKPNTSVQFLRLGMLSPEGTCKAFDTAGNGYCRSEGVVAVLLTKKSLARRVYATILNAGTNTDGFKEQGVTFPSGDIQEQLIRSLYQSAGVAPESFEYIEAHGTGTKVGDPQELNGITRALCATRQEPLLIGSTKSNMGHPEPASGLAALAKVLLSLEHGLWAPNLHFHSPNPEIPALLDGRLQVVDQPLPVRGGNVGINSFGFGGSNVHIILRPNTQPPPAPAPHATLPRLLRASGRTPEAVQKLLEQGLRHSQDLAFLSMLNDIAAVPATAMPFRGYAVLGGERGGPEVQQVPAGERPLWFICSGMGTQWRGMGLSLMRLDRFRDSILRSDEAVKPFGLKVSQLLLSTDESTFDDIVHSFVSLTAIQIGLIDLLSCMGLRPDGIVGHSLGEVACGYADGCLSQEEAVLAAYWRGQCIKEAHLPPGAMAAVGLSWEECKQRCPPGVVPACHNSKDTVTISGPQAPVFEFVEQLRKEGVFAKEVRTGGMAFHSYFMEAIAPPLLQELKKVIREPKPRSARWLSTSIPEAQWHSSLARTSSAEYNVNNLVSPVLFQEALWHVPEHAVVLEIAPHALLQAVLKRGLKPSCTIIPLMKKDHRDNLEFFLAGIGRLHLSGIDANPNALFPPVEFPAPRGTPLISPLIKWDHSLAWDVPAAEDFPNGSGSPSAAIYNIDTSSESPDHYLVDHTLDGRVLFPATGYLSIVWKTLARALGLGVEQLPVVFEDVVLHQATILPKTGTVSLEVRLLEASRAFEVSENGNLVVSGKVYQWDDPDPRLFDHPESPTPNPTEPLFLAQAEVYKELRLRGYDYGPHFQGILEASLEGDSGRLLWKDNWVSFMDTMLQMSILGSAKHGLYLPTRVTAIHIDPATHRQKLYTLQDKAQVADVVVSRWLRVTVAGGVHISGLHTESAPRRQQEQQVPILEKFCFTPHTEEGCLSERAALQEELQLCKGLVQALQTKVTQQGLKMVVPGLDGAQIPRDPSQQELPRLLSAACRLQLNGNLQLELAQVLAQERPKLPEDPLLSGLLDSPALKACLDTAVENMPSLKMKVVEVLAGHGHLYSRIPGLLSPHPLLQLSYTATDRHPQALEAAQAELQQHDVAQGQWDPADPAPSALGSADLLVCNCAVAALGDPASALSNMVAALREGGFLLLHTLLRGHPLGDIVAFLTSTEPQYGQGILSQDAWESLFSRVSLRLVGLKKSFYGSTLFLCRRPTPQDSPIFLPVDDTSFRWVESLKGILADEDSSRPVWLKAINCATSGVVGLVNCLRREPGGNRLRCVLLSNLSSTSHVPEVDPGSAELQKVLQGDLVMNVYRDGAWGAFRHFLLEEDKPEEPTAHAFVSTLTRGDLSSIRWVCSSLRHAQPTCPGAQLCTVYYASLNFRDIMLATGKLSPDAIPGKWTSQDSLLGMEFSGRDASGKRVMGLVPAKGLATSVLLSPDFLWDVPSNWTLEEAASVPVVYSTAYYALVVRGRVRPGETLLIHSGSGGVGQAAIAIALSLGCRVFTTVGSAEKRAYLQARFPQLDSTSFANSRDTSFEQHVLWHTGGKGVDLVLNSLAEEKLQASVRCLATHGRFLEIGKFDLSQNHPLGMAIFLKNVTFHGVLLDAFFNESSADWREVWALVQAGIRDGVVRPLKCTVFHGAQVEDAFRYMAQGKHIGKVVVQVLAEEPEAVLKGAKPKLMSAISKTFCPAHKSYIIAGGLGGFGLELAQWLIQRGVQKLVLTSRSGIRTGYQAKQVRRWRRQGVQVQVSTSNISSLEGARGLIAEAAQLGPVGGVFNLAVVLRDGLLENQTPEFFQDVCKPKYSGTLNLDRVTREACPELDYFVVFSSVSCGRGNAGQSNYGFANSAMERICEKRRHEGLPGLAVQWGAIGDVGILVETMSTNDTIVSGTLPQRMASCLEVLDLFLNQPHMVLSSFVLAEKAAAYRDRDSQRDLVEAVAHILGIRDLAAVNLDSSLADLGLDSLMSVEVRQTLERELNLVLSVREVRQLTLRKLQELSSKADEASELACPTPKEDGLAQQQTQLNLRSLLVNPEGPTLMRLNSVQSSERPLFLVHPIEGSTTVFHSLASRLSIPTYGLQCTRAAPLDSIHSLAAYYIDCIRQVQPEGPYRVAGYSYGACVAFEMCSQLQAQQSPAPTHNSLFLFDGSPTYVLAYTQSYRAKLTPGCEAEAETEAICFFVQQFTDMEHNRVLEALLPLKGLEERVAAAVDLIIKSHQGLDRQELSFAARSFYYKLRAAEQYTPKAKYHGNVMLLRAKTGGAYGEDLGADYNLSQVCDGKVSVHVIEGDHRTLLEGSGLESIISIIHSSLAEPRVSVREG

[3] = biological target: Sphingosine 1-phosphate receptor 1 (Homo sapiens, UniProt P21453); experiment: Fluorescence-based counterscreen assay for S1P4 agonists: Cell-based dose response high throughput screening assay to identify agonists of the Sphingosine 1-Phosphate Receptor 1 (S1P1). [Related pubchem assays (depositor defined):AID1509, AID1523, AID1801, AID463107, AID463118, AID463119, AID463122, AID463123, AID463129, AID463225, AID504400, AID504460]; assay type: functional
Sphingosine 1-phosphate receptor 1, sequence (P21453 whole entry): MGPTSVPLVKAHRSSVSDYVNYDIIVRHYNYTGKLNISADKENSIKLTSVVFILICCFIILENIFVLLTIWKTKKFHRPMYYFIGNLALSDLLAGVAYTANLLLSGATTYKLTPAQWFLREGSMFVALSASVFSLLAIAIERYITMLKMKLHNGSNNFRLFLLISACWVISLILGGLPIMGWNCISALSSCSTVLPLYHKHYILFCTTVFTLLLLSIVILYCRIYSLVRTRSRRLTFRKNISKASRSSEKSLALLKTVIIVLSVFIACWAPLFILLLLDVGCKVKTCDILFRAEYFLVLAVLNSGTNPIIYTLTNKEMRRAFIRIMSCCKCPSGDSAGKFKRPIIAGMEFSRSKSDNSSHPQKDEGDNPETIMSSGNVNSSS

[4] = biological target: Sphingosine 1-phosphate receptor 4 (Homo sapiens, UniProt O95977); experiment: Fluorescence dose response cell-based high throughput screening assay for agonists of the Sphingosine 1-Phosphate Receptor 4 (S1P4). [Related pubchem assays: 1509 (Primary screen.), 1523 (Confirmation screen in triplicates.)]; assay type: functional
Sphingosine 1-phosphate receptor 4, sequence (O95977 whole entry): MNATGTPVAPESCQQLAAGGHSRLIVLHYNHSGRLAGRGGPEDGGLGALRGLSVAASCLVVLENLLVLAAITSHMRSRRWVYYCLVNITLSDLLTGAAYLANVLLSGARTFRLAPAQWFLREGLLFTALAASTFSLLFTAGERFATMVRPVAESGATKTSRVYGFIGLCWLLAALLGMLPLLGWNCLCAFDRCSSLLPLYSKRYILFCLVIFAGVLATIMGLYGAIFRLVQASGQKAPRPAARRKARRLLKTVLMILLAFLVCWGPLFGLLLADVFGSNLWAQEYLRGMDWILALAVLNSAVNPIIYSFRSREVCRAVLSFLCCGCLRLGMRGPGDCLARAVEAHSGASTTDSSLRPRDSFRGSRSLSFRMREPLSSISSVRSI

[5] = biological target: T1, Fatty acid synthase; experiment: inhibition of human FAS-TE enzyme activity – biochemical, endpoint fluorescence intensity, uHTS hits, dose response (AID 624327); assay type: functional;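 also: fluorescence from hydrolysis of an O-methyl fluorescein acyl ester substrate by the enzyme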
[6] = biological target: Sphingosine 1-phosphate receptor 2 (Homo sapiens, UniProt O95136); experiment: Dose Response Cell Based Assay for Agonists of the S1P2 Receptor. [Related pubchem assays: 729, 736, 843 ]; assay type: functional
Sphingosine 1-phosphate receptor 2, sequence (O95136 whole entry): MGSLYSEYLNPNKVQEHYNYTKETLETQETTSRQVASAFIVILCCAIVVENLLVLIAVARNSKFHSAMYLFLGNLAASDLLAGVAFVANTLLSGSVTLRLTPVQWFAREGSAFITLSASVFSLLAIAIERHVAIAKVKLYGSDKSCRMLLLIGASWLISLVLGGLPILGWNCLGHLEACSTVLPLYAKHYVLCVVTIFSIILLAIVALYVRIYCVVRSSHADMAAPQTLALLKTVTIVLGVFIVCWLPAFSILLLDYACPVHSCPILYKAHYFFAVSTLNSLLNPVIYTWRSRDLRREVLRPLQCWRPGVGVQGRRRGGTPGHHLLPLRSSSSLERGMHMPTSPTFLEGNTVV

[7] = biological target: T2, Tyrosine-protein phosphatase non-receptor type 22 (Homo sapiens, UniProt Q9Y2R2); assay type: functional
T2 sequence (Q9Y2R2 whole entry): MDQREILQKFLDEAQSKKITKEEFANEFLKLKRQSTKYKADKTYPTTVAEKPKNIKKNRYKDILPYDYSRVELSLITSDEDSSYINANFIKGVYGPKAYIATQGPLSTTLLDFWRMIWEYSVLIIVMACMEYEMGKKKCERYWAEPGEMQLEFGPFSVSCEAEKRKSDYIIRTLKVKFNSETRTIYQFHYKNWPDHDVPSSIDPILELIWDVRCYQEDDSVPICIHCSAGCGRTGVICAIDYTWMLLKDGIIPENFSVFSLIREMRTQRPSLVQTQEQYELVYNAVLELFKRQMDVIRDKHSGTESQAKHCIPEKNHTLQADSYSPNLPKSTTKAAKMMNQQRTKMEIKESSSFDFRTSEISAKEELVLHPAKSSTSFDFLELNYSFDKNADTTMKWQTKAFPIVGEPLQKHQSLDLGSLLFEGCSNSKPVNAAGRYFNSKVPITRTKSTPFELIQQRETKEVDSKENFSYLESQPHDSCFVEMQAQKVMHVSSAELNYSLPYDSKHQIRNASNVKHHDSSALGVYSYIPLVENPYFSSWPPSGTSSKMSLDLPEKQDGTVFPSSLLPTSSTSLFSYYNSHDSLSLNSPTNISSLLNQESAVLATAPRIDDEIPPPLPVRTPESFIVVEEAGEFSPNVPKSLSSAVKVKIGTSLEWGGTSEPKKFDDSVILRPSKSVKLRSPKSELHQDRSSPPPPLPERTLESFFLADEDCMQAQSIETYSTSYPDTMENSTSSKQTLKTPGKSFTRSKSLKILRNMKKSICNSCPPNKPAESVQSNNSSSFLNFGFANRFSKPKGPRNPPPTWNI

[8] = biological target: T3, Tyrosine-protein phosphatase non-receptor type 7 (Homo sapiens, UniProt P35236); assay type: functional
T3 sequence (P35236 whole entry): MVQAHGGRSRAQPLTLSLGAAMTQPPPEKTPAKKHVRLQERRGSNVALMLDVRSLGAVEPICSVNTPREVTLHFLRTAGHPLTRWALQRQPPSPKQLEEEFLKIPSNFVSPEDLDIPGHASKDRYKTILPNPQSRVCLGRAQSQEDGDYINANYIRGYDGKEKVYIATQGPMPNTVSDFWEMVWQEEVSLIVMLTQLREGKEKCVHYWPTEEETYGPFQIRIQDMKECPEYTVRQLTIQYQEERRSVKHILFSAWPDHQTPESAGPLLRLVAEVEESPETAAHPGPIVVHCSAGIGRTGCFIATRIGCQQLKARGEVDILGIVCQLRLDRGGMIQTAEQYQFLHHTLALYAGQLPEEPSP

[9] = biological target: T2, Tyrosine-protein phosphatase non-receptor type 22; assay type: functional; remark: listed apart in the source
[10] = biological target: Voltage-dependent T-type calcium channel subunit alpha-1H (Homo sapiens, UniProt O95180); experiment: inhibition of CACNA1H calcium flux – cell-based, SynthLib3 library, HEK293 Cav3.2, fluorescence (AID 493041); assay type: functional
[11] = biological target: T4, Apoptotic protease-activating factor 1 (Homo sapiens, UniProt O14727); assay type: functional
T4 sequence (O14727 whole entry): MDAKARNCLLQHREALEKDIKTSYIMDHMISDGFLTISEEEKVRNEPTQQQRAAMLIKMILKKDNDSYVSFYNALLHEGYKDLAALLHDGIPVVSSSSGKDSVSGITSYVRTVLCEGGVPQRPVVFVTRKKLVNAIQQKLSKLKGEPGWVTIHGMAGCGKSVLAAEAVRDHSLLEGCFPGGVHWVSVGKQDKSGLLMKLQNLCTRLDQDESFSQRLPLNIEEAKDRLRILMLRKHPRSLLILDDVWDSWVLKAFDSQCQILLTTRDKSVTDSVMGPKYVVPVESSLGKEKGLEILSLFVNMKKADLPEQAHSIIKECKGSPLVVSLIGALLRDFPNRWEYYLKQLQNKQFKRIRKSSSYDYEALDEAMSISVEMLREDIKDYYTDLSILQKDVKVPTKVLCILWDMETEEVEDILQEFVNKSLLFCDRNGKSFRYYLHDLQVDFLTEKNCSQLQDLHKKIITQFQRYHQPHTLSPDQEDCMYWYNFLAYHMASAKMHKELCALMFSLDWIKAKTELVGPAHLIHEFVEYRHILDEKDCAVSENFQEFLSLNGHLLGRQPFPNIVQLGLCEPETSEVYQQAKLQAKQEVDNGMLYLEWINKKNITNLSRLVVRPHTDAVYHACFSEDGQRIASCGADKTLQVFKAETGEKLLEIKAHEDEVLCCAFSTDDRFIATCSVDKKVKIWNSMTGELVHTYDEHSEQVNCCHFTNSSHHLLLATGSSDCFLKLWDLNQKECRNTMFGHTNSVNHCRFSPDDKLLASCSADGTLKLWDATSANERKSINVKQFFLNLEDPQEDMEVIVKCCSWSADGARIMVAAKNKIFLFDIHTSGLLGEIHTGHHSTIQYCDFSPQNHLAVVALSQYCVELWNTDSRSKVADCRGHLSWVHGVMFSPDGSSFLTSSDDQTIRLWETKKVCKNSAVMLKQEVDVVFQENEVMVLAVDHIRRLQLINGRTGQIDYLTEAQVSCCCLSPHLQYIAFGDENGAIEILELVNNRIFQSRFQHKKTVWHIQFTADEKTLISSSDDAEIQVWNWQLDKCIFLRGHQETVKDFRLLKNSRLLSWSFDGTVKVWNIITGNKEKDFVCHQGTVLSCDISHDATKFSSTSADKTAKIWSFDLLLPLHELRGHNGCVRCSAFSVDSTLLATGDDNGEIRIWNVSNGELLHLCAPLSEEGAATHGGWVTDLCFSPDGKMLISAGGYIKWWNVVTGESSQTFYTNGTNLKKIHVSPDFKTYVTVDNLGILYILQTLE

[12] = biological target: Intestinal-type alkaline phosphatase (Mus musculus, UniProt P24822); experiment: mouse intestinal alkaline phosphatase activators, dose response, biochemical, luminescence, uHTS hits (AID 488783); assay type: functional
[13] = HEK-293T viability loss after treatment – luminescence, T-cell screen hits, cytotoxicity control for TCR NF-kB inhibitor project, dose response (AID 489026); assay type: functional, cell-based;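 also: cells exposed to compound about 14 hours before the viability readout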
[14] = biological target: Intestinal-type alkaline phosphatase (Homo sapiens, UniProt P09923); experiment: activation of human intestinal alkaline phosphatase – biochemical, dose response (AID 488873); assay type: functional
Intestinal-type alkaline phosphatase (Homo sapiens, UniProt P09923), sequence (P09923 whole entry): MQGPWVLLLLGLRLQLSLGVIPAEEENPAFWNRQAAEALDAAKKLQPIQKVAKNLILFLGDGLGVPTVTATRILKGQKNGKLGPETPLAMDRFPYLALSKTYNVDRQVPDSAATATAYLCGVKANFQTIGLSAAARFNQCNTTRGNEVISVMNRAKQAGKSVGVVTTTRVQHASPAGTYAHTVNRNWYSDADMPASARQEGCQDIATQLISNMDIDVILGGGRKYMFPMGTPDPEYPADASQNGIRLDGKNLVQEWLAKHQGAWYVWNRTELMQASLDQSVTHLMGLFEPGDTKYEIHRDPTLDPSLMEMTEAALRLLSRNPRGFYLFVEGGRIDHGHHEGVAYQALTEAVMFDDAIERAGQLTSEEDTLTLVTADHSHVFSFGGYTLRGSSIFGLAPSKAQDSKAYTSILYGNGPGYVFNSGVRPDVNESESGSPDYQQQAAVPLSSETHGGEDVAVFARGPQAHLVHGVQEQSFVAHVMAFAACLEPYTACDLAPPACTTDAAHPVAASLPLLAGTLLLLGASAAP

[15] = biological target: T5, Alkaline phosphatase, tissue-nonspecific isozyme (Homo sapiens, UniProt P05186); experiment: activation of tissue-nonspecific alkaline phosphatase – biochemical, TNAP isozyme, mouse IAP uHTS hits, selectivity assay for mouse IAP activator project, dose response (AID 488880); assay type: functional
T5 sequence (P05186 whole entry): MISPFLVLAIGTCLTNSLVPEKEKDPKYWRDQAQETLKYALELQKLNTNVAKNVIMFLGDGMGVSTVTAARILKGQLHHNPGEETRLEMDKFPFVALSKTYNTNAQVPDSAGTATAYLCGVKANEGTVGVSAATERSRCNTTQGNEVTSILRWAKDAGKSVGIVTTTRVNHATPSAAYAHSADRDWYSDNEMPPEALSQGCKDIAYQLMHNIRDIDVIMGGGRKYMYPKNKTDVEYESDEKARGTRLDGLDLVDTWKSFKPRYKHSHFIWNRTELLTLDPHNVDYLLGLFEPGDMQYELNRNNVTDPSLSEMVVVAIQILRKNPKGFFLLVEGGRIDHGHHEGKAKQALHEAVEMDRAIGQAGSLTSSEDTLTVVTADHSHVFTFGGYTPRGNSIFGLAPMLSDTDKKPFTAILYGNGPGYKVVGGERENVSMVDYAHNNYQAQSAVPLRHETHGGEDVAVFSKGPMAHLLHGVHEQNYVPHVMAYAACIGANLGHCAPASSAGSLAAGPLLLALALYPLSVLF

Endoplasmic reticulum aminopeptidase 1, sequence (Q9NZ08 whole entry): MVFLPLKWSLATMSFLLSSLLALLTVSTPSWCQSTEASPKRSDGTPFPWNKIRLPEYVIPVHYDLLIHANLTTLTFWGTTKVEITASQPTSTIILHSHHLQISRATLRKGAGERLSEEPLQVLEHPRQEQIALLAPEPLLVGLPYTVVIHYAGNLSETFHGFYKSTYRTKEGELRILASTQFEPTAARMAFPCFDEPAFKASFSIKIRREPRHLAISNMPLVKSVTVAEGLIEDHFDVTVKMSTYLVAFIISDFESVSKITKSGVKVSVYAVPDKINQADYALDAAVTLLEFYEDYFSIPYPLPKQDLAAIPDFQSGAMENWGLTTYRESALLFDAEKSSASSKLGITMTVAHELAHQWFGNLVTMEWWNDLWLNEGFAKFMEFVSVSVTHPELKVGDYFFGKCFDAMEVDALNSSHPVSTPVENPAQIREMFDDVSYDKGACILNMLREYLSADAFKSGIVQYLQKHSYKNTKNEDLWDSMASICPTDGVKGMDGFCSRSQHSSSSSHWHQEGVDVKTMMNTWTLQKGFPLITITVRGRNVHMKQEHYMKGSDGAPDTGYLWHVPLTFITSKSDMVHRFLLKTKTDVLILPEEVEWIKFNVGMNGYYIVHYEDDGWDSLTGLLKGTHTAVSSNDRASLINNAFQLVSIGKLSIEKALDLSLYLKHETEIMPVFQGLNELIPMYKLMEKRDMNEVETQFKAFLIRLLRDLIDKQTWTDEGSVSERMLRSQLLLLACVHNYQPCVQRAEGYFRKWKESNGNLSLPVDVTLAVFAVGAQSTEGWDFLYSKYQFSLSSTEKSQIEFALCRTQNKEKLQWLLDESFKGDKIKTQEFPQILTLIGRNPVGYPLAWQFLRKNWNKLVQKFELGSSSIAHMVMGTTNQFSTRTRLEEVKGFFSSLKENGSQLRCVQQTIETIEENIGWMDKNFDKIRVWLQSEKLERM

- AC50 [1]: 13 µM (active)
- IC50 [2]: 0.469 µM (active)
- EC50 [3]: 3.12 µM (active)
- EC50 [4]: 3.65 µM (active)
- IC50 [5]: 0.434 µM (active)
- EC50 [6]: 1.95 µM (active)
SMILES: O=S(=O)(c1ccc(N2CCC(c3ccc(Cl)cc3)=N2)cc1)N(CCO)CCO

- IC50 [7]: > 79.4 µM (inactive)
- IC50 [8]: > 79.4 µM (inactive)
- IC50 [9]: > 79.4 µM (inactive)
SMILES: Cc1cc(C(=O)NCCCN2CCCC2=O)cs1

- EC50 [10]: 1.8 µM (active)
SMILES: CC(C)Cc1nnc(NC(=O)COc2ccc(Cl)cc2Cl)o1

SMILES: Cc1cc(O)c2c(c1O)C(=O)[C@]13C(=C2O)C(=O)[C@@H]2[C@@H](O)[C@H]1[C@@H]1[C@H](O)[C@H]3C(=O)C3=C(O)c4c(O)cc(C)c(O)c4C(=O)[C@]312
- IC50 [11]: 19.5 µM (active)
- EC50 [12]: 43.1 µM (active)
- IC50 [13]: > 80 µM (inactive)
- EC50 [14]: 63.3 µM (active)
- EC50 [15]: 51.2 µM (active)
